According to patent publication US5856189A, “Cell culture model for drug bioavailability” (priority 1997, dated 1999):

What was measured:
[1] = Intrinsic 1'-OH-MDZ formation clearance, human duodenal mucosa/microsomes; type: in vitro ADME; details: duodenal microsomes; eight human duodenal preparations, Vmax/Km; read-out: Microsomal intrinsic clearance (1'-OH-MDZ formation), duodenum
Protocol: (§1) For comparison, an intrinsic 1'-OH-MDZ formation clearance was determined for eight paired human duodenal and jejunal mucosae. The mucosal mass was removed from ~1 foot sections of duodenum and jejunum and total homogenate and microsomes were prepared, as described above. […] Microsomes were incubated with varying concentrations of MDZ for determination of Km and Vmax parameters for 1'-hydroxylation.
(§2) The total amount of microsomal protein per gram of mucosa was determined from the following relationship: [formula] This calculation assumes that CYP3A4 found in mucosal homogenate resides exclusively within the microsomal fraction. The microsomal intrinsic formation clearance was calculated as the ratio of Vmax to Km. The intrinsic 1'-OH-MDZ formation clearance per gram of mucosa was calculated as the product of the microsomal intrinsic formation clearance and the computed amount of microsomal protein per gram of mucosa.

[2] = tested on: human duodenal microsomes (CYP3A); test: as above; type: in vitro ADME; details: eight human duodenal preparations, Vmax/Km; listed as MDZ
Protocol: as §1, §2

[3] = Intrinsic 1'-OH-MDZ formation clearance, human jejunal mucosa/microsomes; type: in vitro ADME; details: jejunal microsomes; eight human jejunal preparations, Vmax/Km; read-out: Microsomal intrinsic clearance (1'-OH-MDZ formation), jejunum
Protocol: as §1, §2

[4] = tested on: human jejunal microsomes (CYP3A); test: as above; type: in vitro ADME; details: eight human jejunal preparations, Vmax/Km; listed as MDZ
Protocol: as §1, §2

[5] = biological target: CYP3A (Caco-2 cells) (Homo sapiens, UniProt P08684)
Protocol: Standards were also prepared in duplicate. Known amounts of MDZ and 1'-OH-MDZ (1-50 ng) were combined with 100 mM potassium phosphate buffer, pH 7.4.
Unknowns and standards were extracted with 5 mL ethyl acetate and the upper organic layer transferred to clean tubes. The solvent was evaporated to dryness under a stream of nitrogen. The remaining solvent was reconstituted in 100 μL derivatizing reagent (10% N-methyl-N-(t-butyldimethylsilyl)trifluoroacetamide in acetonitrile).
At the end of this period, the medium was replaced with medium not containing vitamin D (except that contributed by the 5% FBS). Next, 4 μM MDZ was added to the apical (luminal) or basolateral (serosal) medium of the cells.
Parent drug and metabolite concentrations measured at 1 and 2 hours after MDZ administration were used for computation. The amount of 1'-OH-MDZ formed during this interval was determined as the sum of metabolite in the apical and basolateral compartments at 2 hours minus the total amount measured at 1 hour.
Because the incubation medium contained significant amounts of FBS, the fraction of MDZ bound to culture medium proteins was measured by equilibrium dialysis. […] The unbound concentration of MDZ in the apical and basolateral compartments during cell culture was calculated as the product of the experimentally determined MDZ-free fraction and total MDZ concentration. Since MDZ concentrations in the apical and basolateral compartments were not at equilibrium during the 1-2 hour MDZ incubation interval, the intracellular reaction was assumed to be driven by a MDZ concentration that was more closely aligned with the concentration in the basolateral compartment.
At the end of this period, the medium was replaced with medium containing neither serum nor vitamin D. Next, MDZ (4 μM) was added to the apical compartment.

[6] = M. F. Paine et al.; cited from earlier work
[7] = tested on: CYP3A; details: K. E. Thummel et al.; cited from earlier work
[8] = tested on: Caco-2 cells; test: Apical/basolateral distribution of midazolam and metabolite across Caco-2 monolayers
Description: At the end of this period, the medium was replaced with medium not containing vitamin D (except that contributed by the 5% FBS).

[9] = 1α,25-(OH)2 -D3 pretreated cells

Sequence of CYP3A (Caco-2 cells) (P08684 2-503): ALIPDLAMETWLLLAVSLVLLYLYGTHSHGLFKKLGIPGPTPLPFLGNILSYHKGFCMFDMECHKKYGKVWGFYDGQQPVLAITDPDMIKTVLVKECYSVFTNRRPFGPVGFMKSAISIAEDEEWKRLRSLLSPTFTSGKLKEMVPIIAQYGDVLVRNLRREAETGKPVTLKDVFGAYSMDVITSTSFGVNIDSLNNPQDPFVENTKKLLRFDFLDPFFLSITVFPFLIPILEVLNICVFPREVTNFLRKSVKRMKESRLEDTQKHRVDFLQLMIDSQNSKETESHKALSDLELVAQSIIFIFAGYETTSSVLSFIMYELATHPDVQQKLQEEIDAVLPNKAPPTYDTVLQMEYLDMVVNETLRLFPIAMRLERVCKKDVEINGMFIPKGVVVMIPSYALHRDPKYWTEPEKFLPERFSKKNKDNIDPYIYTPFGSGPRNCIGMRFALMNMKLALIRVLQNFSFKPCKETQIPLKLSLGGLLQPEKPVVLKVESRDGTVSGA

## Cc1ncc2n1-c1ccc(Cl)cc1C(c1ccccc1F)=NC2 [midazolam]
[1]
  microsomal CLint: 134 ± 109 µL/min/mg
[2]
  Microsomal intrinsic clearance (1'-OH-MDZ formation), duodenum: 133.8 μl/min/mg protein
[3]
  microsomal CLint: 118 ± 98.2 µL/min/mg
[4]
  Microsomal intrinsic clearance (1'-OH-MDZ formation), jejunum: 118.3 μl/min/mg protein
[5]
  predicted unbound intracellular MDZ concentration in Caco-2 cells: ~ 0.07 μM
[5]; 0-24 h, FIG. 6A
  rate of 1'-OH-MDZ formation over time: remained roughly constant after 6 hours
[5]; 4 μM MDZ to either compartment, cells treated with 0.25 μM 1α,25-(OH)2 -D3
  time until 1'-OH-MDZ detectable after MDZ administration: ≤ 1 h
[5]; 1-2 h incubation interval, 4 μM MDZ apical
  1'-Hydroxymidazolam formation rate: 75.9 pmol/min/g cells
[5]; 1-2 h interval
  unbound midazolam concentration, apical: 280 nM
  unbound midazolam concentration, basolateral: 66.3 nM
[5]; 1-2 h interval, non-saturating
  intrinsic 1'-OH-MDZ formation clearance, Caco-2 cells: 1.14 ml/min/g cells
[5]; 1-2 h interval, total
  average midazolam concentration, apical: 2740 nM
  average midazolam concentration, basolateral: 650 nM
[5]; [9]
  intrinsic 1'-OH-MDZ formation clearance of Caco-2 cells as percent of duodenal mucosa: 30%
  intrinsic 1'-OH-MDZ formation clearance of Caco-2 cells as percent of jejunal mucosa: 31%
[6]
  site of midazolam glucuronidation in vivo: occurs primarily in the liver and not in the intestine in vivo
[7]
  Km: ~3.4 µM
[8]; apical administration of 4 μM MDZ, 12-24 h
  apical-to-basolateral concentration gradient of parent compound: approximately 1.4 fold
[8]; by 12 hours
  distribution of parent compound after basolateral administration: distributed preferentially to the apical medium
